Measurements published in the supplement of paper PMC10307832.

Assays:
Test in all cases: relative viability (nuclei count vs DMSO), 5 days (fraction); higher = more cells survive
[1] = compound: C1=CC=C2C(=C1)C=CC(=C2SSC3=C(C=CC4=CC=CC=C43)O)O [IPA-3] + Cc1nc(NC(=O)N2CCC[C@H]2C(N)=O)sc1-c1ccnc(C(C)(C)C(F)(F)F)c1 [Alpelisib] (partner 2 µM)
Method in brief: (§1)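 Lung cancer cell lines in 1536-well plates got either a single drug or a fixed anchor-drug dose together with five library-drug doses (not always all listed) in √10 steps, by pin tool, on the day after seeding. Nuclei were counted after 5 days, and relative viability is the treated-to-vehicle ratio of nuclei counts. Values are medians of duplicate plates.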

[2] = compound: C1=CC=C2C(=C1)C=CC(=C2SSC3=C(C=CC4=CC=CC=C43)O)O [IPA-3] + Cc1nc(Nc2ncc(C(=O)Nc3c(C)cccc3Cl)s2)cc(N2CCN(CCO)CC2)n1 [Dasatinib] (partner 0.075 µM)
Method in brief: as §1

[3] = compound: Cc1ccc(-n2nc(C(C)(C)C)cc2NC(=O)Nc2ccc(OCCN3CCOCC3)c3ccccc23)cc1 [Doramapimod] + COc1cccc2cc(-c3nc([C@H]4CC[C@H](C(=O)O)CC4)n4ncnc(N)c34)[nH]c12 [OSI-027] (partner 0.5 µM)
Method in brief: as §1

[4] = compound: Cc1ccc(-n2nc(C(C)(C)C)cc2NC(=O)Nc2ccc(OCCN3CCOCC3)c3ccccc23)cc1 [Doramapimod] + Nc1nc2[nH]cc(CCc3ccc(C(=O)N[C@@H](CCC(=O)O)C(=O)O)cc3)c2c(=O)[nH]1 [Pemetrexed] (partner 0.2 µM)
Method in brief: as §1

| Cell Line | relative viability ([1]; first compound 0.2 µM) | relative viability ([1]; first compound 0.6325 µM) | relative viability ([1]; first compound 2 µM) | relative viability ([1]; first compound 6.325 µM) | relative viability ([1]; first compound 20 µM) | relative viability ([2]; first compound 0.2 µM) | relative viability ([2]; first compound 0.6325 µM) | relative viability ([2]; first compound 2 µM) | relative viability ([2]; first compound 6.325 µM) | relative viability ([2]; first compound 20 µM) | relative viability ([3]; first compound 0.02 µM) | relative viability ([3]; first compound 0.06325 µM) | relative viability ([3]; first compound 0.2 µM) | relative viability ([3]; first compound 0.6325 µM) | relative viability ([3]; first compound 2 µM) | relative viability ([4]; first compound 0.02 µM) | relative viability ([4]; first compound 0.06325 µM) | relative viability ([4]; first compound 0.2 µM) | relative viability ([4]; first compound 0.6325 µM) | relative viability ([4]; first compound 2 µM) |
| --- | --- | --- | --- | --- | --- | --- | --- | --- | --- | --- | --- | --- | --- | --- | --- | --- | --- | --- | --- | --- |
| NCI-H1355 | 0.918 | 0.782 | 0.809 | 0.797 | 0.802 | 0.774 | 0.719 | 0.714 | 0.695 | 0.594 | 0.412 | 0.409 | 0.381 | 0.361 | 0.341 | 1.06 | 1.04 | 0.999 | 1.05 | 0.894 |
| NCI-H838 | 1.25 | 0.948 | 1.05 | 1.06 | 1.16 | 0.32 | 0.234 | 0.291 | 0.319 | 0.328 | 0.383 | 0.364 | 0.376 | 0.369 | 0.326 | 0.238 | 0.252 | 0.276 | 0.263 | 0.246 |
| LK-2 | 1.13 | 1.02 | 1.19 | 1.19 | 1.22 | 0.261 | 0.27 | 0.222 | 0.28 | 0.282 | 0.204 | 0.152 | 0.18 | 0.158 | 0.186 | 0.283 | 0.286 | 0.283 | 0.198 | 0.157 |
| NCI-H322M | 0.867 | 0.823 | 0.759 | 0.0386 | 0.901 | 0.228 | 0.248 | 0.248 | 0.309 | 0.264 | 0.577 | 0.579 | 0.562 | 0.522 | 0.527 | 0.666 | 0.653 | 0.64 | 0.644 | 0.654 |
| NCI-H661 | 0.693 | 0.682 | 0.801 | 0.765 | 1.07 | 1.06 | 0.871 | 0.656 | 0.867 | 0.787 | 0.71 | 0.732 | 0.791 | 0.799 | 0.629 | 1.05 | 0.861 | 0.923 | 0.96 | 0.901 |
| NCI-H2228 | 0.948 | 0.785 | 0.884 | 0.68 | 0.51 | 0.571 | 0.51 | 0.529 | 0.62 | 0.557 | 0.779 | 0.513 | 0.571 | 0.671 | 0.388 | 0.339 | 0.354 | 0.322 | 0.393 | 0.308 |
| NCI-H1395 | 1.06 | 1.29 | 1.04 | 1.26 | 1.01 | 0.408 | 0.42 | 0.385 | 0.44 | 0.466 | 0.617 | 0.728 | 0.702 | 0.826 | 0.523 | 0.82 | 1.04 | 0.889 | 0.836 | 0.696 |
| NCI-H520 | 1.08 | 0.949 | 0.784 | 0.847 | 0.753 | 0.311 | 0.194 | 0.185 | 0.18 | 0.179 | 0.229 | 0.276 | 0.223 | 0.245 | 0.232 | 0.607 | 0.638 | 0.732 | 0.537 | 0.683 |
| NCI-H441 | 0.942 |  | 0.628 | 0.668 | 0.782 | 0.796 | 0.295 | 0.486 | 0.502 | 0.438 | 0.709 | 0.512 | 0.591 |  | 0.475 | 0.252 | 0.244 | 0.251 | 0.268 | 0.268 |
